# Experimental data from US12220442B2, “Antiepileptic toxin Martentoxin and use thereof” (Shanghai Institute of Organic Chemistry, Chinese Academy of …, priority 2018, dated 2025).
# Assays:
# [1] = system: hippocampal neurons; experiment: Hippocampal neuron damage after seizures in rats (Nissel staining); assay type: in vivo, rat; conditions: versus normal saline group
# Protocol: (1) The slice was taken out of the −20° C. refrigerator, reheated for 20 min, framed with a histochemical pen around the slice, and dried;
# (2) The slice was soaked in distilled water for 2 min;
# (3) Nissel staining solution (purchased from Beyotime) was dropped on the brain slice, and dyed in a 37° C. water bath for 10 min;
# (4) Washed twice with distilled water for 10 s each time;
# (5) Sections were dehydrated with 70%, 80%, 95%, 100% alcohol, 2 min each time, and then soaked with xylene twice, 5 min each time;
# (6) The nissel body staining was observed under a microscope and sealed with neutral gum.
# The above two groups of animals (6 animals in each group) were randomly selected from 6 to 8 sections to count the neuron cells in different hippocampal regions (CA1, CA3 and DG). Finally, the average value was taken and the increasing rate of the number of neurons was calculated.
# [2] = system: rat hippocampal neurons pretreated with PTZ; experiment: Patch clamp current record and action potential analysis; assay type: cell-based
# Protocol: If the resting membrane potential of the cell was −70 mV and the input resistance was 350MΩ or more, the patch clamp current was considered acceptable. The record was held at −80 mV as the holding current and induced by increasing positive current injection (for 1000 ms). The action potential differences between PTZ treated cells (measured 24 h after application) and PTZ treated epileptic cells (measured 10 min after application) treated with rMarTX were compared. The peak width was measured at half the peak amplitude of the action potential. The difference between the peak threshold value and the minimum voltage after the peak value of the action potential was used as the measurement value of the post-superpotential. Peak interval was the time between action potential peaks.
# In the current patch clamp recording, the standard external solution was composed of 1.2 mM MgCl2, 10 mM HEPES, 10 mM glucose, 1.5 mM CaCl2, 2.5 mM KCl and 145 mM NaCl. The pH of the solution was adjusted to 7.4 with NaOH. The internal solution was composed of 1 mM CaCl2, 4 mM MgCl2, 10 mM HEPES, 11 mM EGTA, and 140 mM KCl. The pH of the solution was adjusted to 7.2 with KOH.
# [3] = system: c-Fos expression in hippocampus; experiment: c-Fos expression in hippocampus after seizures in rats (immunohistochemistry); assay type: in vivo, rat; design: concentration or dose not given beside the values
# Protocol: After the completion of the PTZ-induced epileptic status behavior experiment, the animals were anesthetized by intraperitoneal injection of sodium pentobarbital (60 mg/kg). The blood vessels were washed by perfusion of 200 mL normal saline through the ascending aorta of the left ventricle, and then perfused with 400 mL fixative solution (0.1M PBS containing […], pH7.4, 4° C.) for 1-2 h. After the brain tissue was removed and placed in the same fixative overnight, it was immersed in 20% sucrose solution until it sank to the bottom of the container, and then immersed in 30% sucrose solution until it sank to the bottom of the container.
# The hippocampal region was secreted from the brain of the rats using a refrigerator slicer (Leica 1900, Germany) with a thickness of 20 μm. The slices were pasted on gelatin-chromium potassium sulfate treated glass slide and frozen at −20° C. for later use. C-Fos immunohistochemistry was performed as follows: • (1) The slice was taken out of the −20° C. refrigerator, reheated for 30 min, framed with a histochemical pen around the slice, and dried; • (2) The slices were immersed for 30 min for braking membrane in 1% Triton-X solution added with 1% H2O2; • (3) Rinsed 3 times with 0.01M PBS (pH7.4) buffer, 5 min for each time; • (4) Sealed with 5% Goat serum at 37° C. for 1 h; • (5) The serum was sucked dry with filter paper, rabbit anti-c-Fos antibody (1: 400, Sc-52, Santa Cruz, USA) was added, the antibody was diluted with 0.01 M PBS, 100 μL for each section, and incubated in a wet box at 4° C. for 48 h; • (6) Rinsed with 0.01 M PBS (pH 7.4) for 10 min and repeated 3 times; • (7) Biotin-labeled goat anti-rabbit IgG diluted with 0.01 M PBS (1:200) was added at room temperature for 2 h; • (8) Rinsed with 0.01 M PBS for 10 min and repeated 3 times. ABC complex (A:B:PBS=1:1:100) was added at room temperature for 2 h; • (9) Rinsed with 0.01 M PBS (pH 7.4) for 10 min and repeated 3 times; • (10) Stained in the dark by DAB-nickel sulfate amine-glucose oxidase (DAB, Sangon Biotech) for 10 min; • (11) Dehydration, 70%, 80%, 95%, 100% (×2) were used for dehydration, 5 min each time, and then soaked with xylene twice, 5 min each time; • (12) The expression of c-Fos was observed under a microscope and sealed with neutral gum.
# The number of c-Fos-like immunoreactive (FLI) neurons in different hippocampal regions (CA1, CA3) and dentate gyrus (DG) was counted. Two groups of animals (6 animals in each group) were randomly selected from 6 to 8 sections for FLI counting in different regions (counting respectively on the same side and the other side of injected toxin or normal saline), and the average value was calculated at last. The inhibition rate of c-Fos expression was calculated according to the following formula. Inhibitory ratio=(A−B)/A×100%
# Wherein, A represents the number of FLI neurons in the normal saline control group; B represents the number of FLI neurons in the MarTX toxin injection group in the corresponding region of the hippocampus.
# [4] = system: rat PTZ convulsion model; experiment: Recurrent convulsive behavior of PTZ in rat; assay type: in vivo
# Protocol: Adult male SD rats were placed in a transparent glass box of 40×30×50 cm to observe the convulsive reaction after administration. Before injection, rats were placed in the box 1 h in advance, moved freely to adapt to the environment, and then injected PTZ (60 mg/kg) intraperitoneally to induce convulsion in rats. The experiment was divided into toxin injection group and normal saline blank control group.
# (1) MarTX toxin injection group: after one intraperitoneal injection of PTZ to induce seizures of epilepsy, the rats were injected with MarTX toxin (dissolved in 2 μL normal saline) in the hippocampus the next day, and then the PTZ was injected again. The toxin dose was 0.08 μg, n=7-8 (n is the number of experimental rats);
# (2) Normal saline blank control group: after one intraperitoneal injection of PTZ to induce seizures of epilepsy, the rats were injected with the same amount of normal saline into the hippocampus one day later, and then PTZ was injected again, n=6.
# In the experiment, “double-blind” dosing and animal behavioral study were used to reduce human error. Incubation period, mortality, duration and number of seizures under different severity of seizures were measured as statistical indexes. The severity of seizures in rats was rated according to the following criteria [Neurophysiol. 1972, 32, 281-294; Brain Res. 1997, 758, 92-98]: • Grade 0: no response; • Grade 1: rhythmic twitch of mouth and face; • Grade 2: wave-like migratory spasm of body; • Grade 3: systemic myoclonus and hip upturned; • Level 4: the body turned to one side; • Grade 5: inverted position, systemic rigidity spasticity seizure.
# A complete convulsive seizure was defined as the period from the onset of the seizure to the return to normal after the seizure. The interval of more than 5 s between seizures was defined as another independent seizure. Incubation period was defined as the time from PTZ injection to the beginning of the first grade 2 seizure.
# [5] = system: hippocampus field potential; experiment: Field potential in hippocampus after seizure in rats; assay type: in vivo, rat; conditions: PTZ epilepsy model, versus normal saline group, n=3
# Protocol: Microarray electrodes were implanted according to the sixth edition of “Rat Brain Stereotactic Atlas” (FIG. 1) edited by George Paxinos and Charles Watson to determine the position of the electrodes: AP: 4.3 mm, MR: 2.2 mm, DV: 2.5 mm, and 3-4 screws were fixed in the blank region of the skull as reference electrodes. The recording electrode and electrode base were fixed with dental cement. Field potentials (FP) were recorded after waking rats. FP signal and sync video could be recorded via omniplex (plexon, USA). According to Nesquet's sampling theory, the back end of the electrode was connected to a preamplifier and coupled to the analog-to-digital converter box. […] was taken as the sampling frequency of local field potential recording, and a […] were set for continuous recording for more than 30 minutes. The local field potential recording results were exported to *. pl2 file format, and visual preview was carried out using offline sorter v4 software. The same channel was used to analyze the local field potential, and the data were derived by MATLAB (MathWorks, USA) program. The local field potential signals of different frequencies were decomposed by wavelet transform to obtain the […] of different frequencies (δ: ˜0-4 Hz, θ: ˜4-8 Hz, α: ˜8-13 Hz, β: ˜13-30 Hz, γ: ˜30-100 Hz). […]
# [6] = contralateral hippocampus, CA1 region
# [7] = contralateral hippocampus, CA3 region
# [8] = contralateral hippocampus, DG region
# [9] = ipsilateral hippocampus, CA1 region
# [10] = ipsilateral hippocampus, CA3 region
# [11] = ipsilateral hippocampus, DG region
# [12] = 300 pA current injection, versus normal saline group, n=4
# [13] = 0.08 μg in hippocampus, PTZ 60 mg/kg i.p., within 2 h
# [14] = MarTX relative to normal saline
substance,measurement,setting,value
Martentoxin [MarTX],Neuronal increase rate,[1]; [6],79.50%
same,Neuronal increase rate,[1]; [7],94.82%
same,Neuronal increase rate,[1]; [8],79.62%
same,Neuronal increase rate,[1]; [9],95.73%
same,Neuronal increase rate,[1]; [10],102.02%
same,Neuronal increase rate,[1]; [11],93.43%
same,Discharge rate (number of action potentials),"[2]; 100, 200 and 300 pA current injection, versus normal saline group, n=4",significant decrease
same,Action potential peak interval,"[2]; 300 pA current injection, versus PTZ pretreated cells (normal saline group), n=4",significantly longer
same,Action potential width,[2]; [12],greater
same,Amplitude of the post-hypertrophy potential,[2]; [12],significantly increased
same,Action potential failure,"[2]; higher current injection (300 pA), versus normal saline group",more action potential failure
same,Inhibitory rate of c-Fos expression,[3]; [6],54.01%
same,Inhibitory rate of c-Fos expression,[3]; [7],55.25%
same,Inhibitory rate of c-Fos expression,[3]; [8],78.53%
same,Inhibitory rate of c-Fos expression,[3]; [9],60.71%
same,Inhibitory rate of c-Fos expression,[3]; [10],51.18%
same,Inhibitory rate of c-Fos expression,[3]; [11],84.98%
same,Duration of epilepsy,[4]; [13],160.00 ± 38.47 s
same,Number of deaths,[4]; [13],0/6
same,The number of Grade 3 seizures,[4]; [13],0.50 ± 0.22
same,The number of seizures from Grade 1 to Grade 2,[4]; [13],4.33 ± 1.36
same,The number of seizures from Grade 4 to Grade 5,[4]; [13],0.50 ± 0.34
same,Incubation,"[4]; 0.08 μg in hippocampus, PTZ 60 mg/kg i.p., within 2 h, time to first grade 2 seizure",427.17 ± 62.21 s
same,Decrease of the number of epileptic seizures (Grade 4 & 5),"[4]; 0.08 μg, versus control group",77%
same,"Duration of epilepsy, relative amplitude",[4]; [14],40%
same,"Incubation, relative amplitude",[4]; [14],272%
same,"The number of Grade 3 seizures, relative amplitude",[4]; [14],14%
same,"The number of seizures from Grade 1 to Grade 2, relative amplitude",[4]; [14],42%
same,"The number of seizures from Grade 4 to Grade 5, relative amplitude",[4]; [14],23%
same,Reduction of the number of Grade 3 seizures,[4]; versus blank control group,86%
same,Reduction of the duration of epilepsy,[4]; versus control group,"(2) MarTX toxin also significantly reduced the duration of epilepsy (duration of MarTX group: 160.00 ± 38.47 s, n = 6, *P < 0.05; control group was 400.00 ± 97.57 s, n = 6) by about 60%."
same,"Power spectrum density of brain δ, θ, α, β and γ waves",[5],significantly lower
